According to patent US20250162989A1, “USP30 INHIBITORS AND USES THEREOF” (Vincere Biosciences, Inc., priority 2021, published 2025):
Where two headings read alike, the source gives them in different places.

Experiments:
[1] = biological target: recombinant USP30 (amino acids 57-517 of the human sequence) (Homo sapiens (Human), UniProt Q70CQ3); test: In vitro USP30 biochemical assay (Ubiquitin-Rhodamine substrate); conditions: fluorescence
Experimental: In vitro biochemical assay to establish the potency of compounds for USP30 inhibition: a 384-well plate assay using a fluorophore tagged substrate of USP30 was used for in vitro screening of compounds. Each compound was tested at
10 different concentrations (0.5 to 10,000 nM) in duplicate wells. […] Data were analyzed using Graph Pad Prism software with a four-parameter (floating slope) fit to log concentration data to determine IC50s.

USP30 = USP30 (Homo sapiens (Human), UniProt Q70CQ3); test: Dundee MALDI-TOF mass spectrometry assay (K48-linked diubiquitin cleavage); format: biochemical; conditions: USP30 25 ng/μl, K48-linked diubiquitin 5.6 μM
Sequence of USP30 (Q70CQ3 whole entry): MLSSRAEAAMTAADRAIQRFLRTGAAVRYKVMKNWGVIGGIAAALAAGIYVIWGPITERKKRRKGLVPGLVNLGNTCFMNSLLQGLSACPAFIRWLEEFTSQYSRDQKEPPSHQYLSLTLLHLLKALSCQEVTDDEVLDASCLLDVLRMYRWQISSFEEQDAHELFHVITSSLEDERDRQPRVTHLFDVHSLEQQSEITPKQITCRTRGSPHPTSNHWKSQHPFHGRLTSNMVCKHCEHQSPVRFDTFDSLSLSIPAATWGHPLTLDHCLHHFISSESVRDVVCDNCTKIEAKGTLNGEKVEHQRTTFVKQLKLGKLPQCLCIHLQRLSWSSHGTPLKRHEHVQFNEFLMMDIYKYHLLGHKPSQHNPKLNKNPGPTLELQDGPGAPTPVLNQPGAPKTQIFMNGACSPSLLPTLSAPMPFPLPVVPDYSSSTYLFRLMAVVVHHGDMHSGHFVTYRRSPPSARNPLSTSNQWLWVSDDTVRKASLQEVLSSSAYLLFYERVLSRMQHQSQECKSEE
Experimental: USP30 was diluted in a buffer containing 40 mM Tris, 0.01% BSA, 1 mM DTT and K48 in 40 mM Tris, 0.01% BSA.
The compounds were pre-incubated with the USP30 for 5 mins at room temp before the K48 dimer addition. The assay mixture was then incubated for 45 mins at room temp. The assay was stopped by the addition of TFA to a final concentration of 2% (v/v).
Acidified samples of the DUB assays were mixed with 0.5 mM 15N-ubiquitin and then with one part of 2% (v/v) TFA and one part of 2.5 DHAP matrix solution (7.6 mg of 2.5 DHAP in […] ethanol and […] of an aqueous 12 mg ml 1 diammonium hydrogen citrate).

[2] = 1.5 nM recombinant USP30, 25 nM Ubiquitin-Rhodamine
[3] = […] recombinant USP30, 25 nM Ubiquitin-Rhodamine

Sequence of recombinant USP30 (amino acids 57-517 of the human sequence) (Q70CQ3 57-517): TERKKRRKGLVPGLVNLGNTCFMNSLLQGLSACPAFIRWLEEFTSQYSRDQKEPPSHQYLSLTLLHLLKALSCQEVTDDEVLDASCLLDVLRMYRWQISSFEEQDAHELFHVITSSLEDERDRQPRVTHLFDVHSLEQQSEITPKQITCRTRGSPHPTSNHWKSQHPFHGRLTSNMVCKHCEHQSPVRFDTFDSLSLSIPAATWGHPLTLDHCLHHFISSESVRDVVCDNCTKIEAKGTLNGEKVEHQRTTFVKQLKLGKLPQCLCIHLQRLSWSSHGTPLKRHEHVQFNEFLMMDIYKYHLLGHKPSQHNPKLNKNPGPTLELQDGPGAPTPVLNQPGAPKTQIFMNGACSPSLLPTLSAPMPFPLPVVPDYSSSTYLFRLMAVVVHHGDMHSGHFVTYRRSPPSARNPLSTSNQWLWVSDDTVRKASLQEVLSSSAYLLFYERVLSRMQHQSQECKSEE

COCCC(C)(C)NS(=O)(=O)c1ccc(NC(=O)[C@H](Cc2ccccc2)NC(=O)c2ccc(F)cc2)cc1C(F)(F)F [Compound I-65]
IC50 [1, 2]: 0.05 to 1 µM | IC50 (USP30; read-out: IC50): < 0.05 µM

CCNS(=O)(=O)c1ccc(NC(=O)[C@H](Cc2ccccc2)NC(=O)c2ccc(F)cc2)cc1O [Compound I-67, (S)—N-(1-(4-(N-ethylsulfamoyl)-3-hydroxyphenylamino)-1-oxo-3-phenylpropan-2-yl)-4-fluorobenzamide]
IC50 [1, 2]: 0.05 to 1 µM | IC50 (USP30; read-out: IC50): < 0.05 µM

O=C(N[C@@H](Cc1ccccc1)C(=O)Nc1ccc(S(=O)(=O)NC2COC2)c(C(F)(F)F)c1)c1ccc(F)cc1 [Compound I-68]
IC50 [1, 2]: 0.05 to 1 µM | IC50 (USP30; read-out: IC50): < 0.05 µM

O=C(N[C@@H](Cc1ccccc1)C(=O)Nc1ccc(S(=O)(=O)NC23CC(C2)C3)c(C(F)(F)F)c1)c1ccc(F)cc1 [Compound I-69]
IC50 [1, 2]: 0.05 to 1 µM | IC50 (USP30; read-out: IC50): < 0.05 µM

CC(C)(C)NS(=O)(=O)c1ccc(NC(=O)[C@H](Cc2ccccc2)NC(=O)c2ccc(F)cc2)cc1C(F)(F)F [Compound I-70, (S)—N-(1-(4-(N-tert-butylsulfamoyl)-3-(trifluoromethyl)phenylamino)-1-oxo-3-phenylpropan-2-yl)-4-fluorobenzamide]
IC50 [1, 3]: < 0.05 µM | IC50 (USP30; read-out: IC50): < 0.05 µM

CC(C)C[C@H](NC(=O)c1ccc(F)cc1)C(=O)Nc1ccc(S(=O)(=O)N[C@@H]2CCOC2)cc1 [Compound I-71]
IC50 [1, 2]: 0.05 to 1 µM | IC50 (USP30; read-out: USP30 IC50 μM (avg)): < 0.05 µM

CC(C)(CO)NS(=O)(=O)c1ccc(NC(=O)C(CC2CCNCC2)NC(=O)c2ccc(F)cc2)cc1 (centres unmarked) [Compound I-72]
IC50 [1, 2]: 0.05 to 1 µM | IC50 (USP30; read-out: USP30 IC50 μM (avg)): 0.05 to 1 µM

COc1cc(NC(=O)[C@H](CC2CCOCC2)NC(=O)c2ccc(F)cc2)cnc1S(=O)(=O)NC1CCCC1 [Compound I-82]
IC50 [1, 2]: 0.05 to 1 µM | IC50 (USP30; read-out: USP30 IC50 μM (avg)): < 0.05 µM

COc1cc(NC(=O)[C@H](CC2CCN(C)CC2)NC(=O)c2ccc(F)cc2)ccc1S(=O)(=O)NC(C)(C)C [Compound I-84]
IC50 [1, 2]: 0.05 to 1 µM | IC50 (USP30; read-out: USP30 IC50 μM (avg)): < 0.05 µM

COc1cc(NC(=O)[C@H](CC2CCOCC2)NC(=O)c2ccc(F)cc2)ccc1S(=O)(=O)NC(C)(C)CO [Compound I-85]
IC50 [1, 2]: 0.05 to 1 µM | IC50 (USP30; read-out: USP30 IC50 μM (avg)): 0.05 to 1 µM

COc1cc(NC(=O)[C@H](CC2CCOCC2)NC(=O)c2ccc(F)cc2)ccc1S(=O)(=O)NC1CCC1 [Compound I-86]
IC50 [1, 3]: < 0.05 µM | IC50 (USP30; read-out: USP30 IC50 μM (avg)): < 0.05 µM

COc1cc(NC(=O)[C@H](CC2CCOCC2)NC(=O)c2ccc(F)cc2)ccc1S(=O)(=O)NC1CCCC1 [Compound I-87]
IC50 [1, 3]: < 0.05 µM | IC50 (USP30; read-out: USP30 IC50 μM (avg)): < 0.05 µM

O=C(N[C@@H](CC1CCOCC1)C(=O)Nc1ccc(S(=O)(=O)NC2CCC2)nc1)c1ccc(F)cc1 [Compound I-91]
IC50 [1, 2]: 0.05 to 1 µM | IC50 (USP30; read-out: USP30 IC50 μM (avg)): < 0.05 µM

COc1cc(NC(=O)[C@H](CC2CCN(C)CC2)NC(=O)c2ccc(F)cc2)ccc1S(=O)(=O)NC(C)(C)CO [Compound I-93]
IC50 [1, 2]: 0.05 to 1 µM | IC50 (USP30; read-out: USP30 IC50 μM (avg)): 0.05 to 1 µM

O=C(N[C@@H](CC1CCOCC1)C(=O)Nc1ccc(S(=O)(=O)NC2CCCC2)nc1)c1ccc(F)cc1 [Compound I-97]
IC50 [1, 3]: < 0.05 µM | IC50 (USP30; read-out: USP30 IC50 μM (avg)): < 0.05 µM

CN1CCC(C[C@H](NC(=O)c2ccc(F)cc2)C(=O)Nc2ccc(S(=O)(=O)NC3COC3)cc2)CC1 [Compound I-99]
IC50 [1, 2]: 0.05 to 1 µM | IC50 (USP30; read-out: USP30 IC50 μM (avg)): 0.05 to 1 µM

CC(=O)N1CCC(CC(NC(=O)c2ccc(F)cc2)C(=O)Nc2ccc(S(=O)(=O)NC(C)(C)C)cc2)CC1 (centres unmarked) [Compound I-101]
IC50 [1, 3]: < 0.05 µM | IC50 (USP30; read-out: USP30 IC50 μM (avg)): < 0.05 µM

CN1CCC(C[C@H](NC(=O)c2ccc(F)cc2)C(=O)Nc2ccc(S(=O)(=O)N[C@@H]3CCOC3)cc2)CC1 [Compound I-103]
IC50 [1, 2]: 0.05 to 1 µM | IC50 (USP30; read-out: USP30 IC50 μM (avg)): 0.05 to 1 µM

CN1CCC(C[C@H](NC(=O)c2ccc(F)cc2)C(=O)Nc2ccc(S(=O)(=O)N[C@@H]3CCOC3)nc2)CC1 [Compound I-105]
IC50 [1, 2]: 0.05 to 1 µM | IC50 (USP30; read-out: USP30 IC50 μM (avg)): 0.05 to 1 µM

CN1CCC(C[C@H](NC(=O)c2ccc(F)cc2)C(=O)Nc2ccc(S(=O)(=O)NC(C)(C)CO)nc2)CC1 [Compound I-106]
IC50 [1, 2]: 0.05 to 1 µM | IC50 (USP30; read-out: USP30 IC50 μM (avg)): 0.05 to 1 µM

O=C(N[C@@H](CC1CCNCC1)C(=O)Nc1ccc(S(=O)(=O)N[C@@H]2CCOC2)cc1)c1ccc(F)cc1 [Compound I-107]
IC50 [1, 2]: 0.05 to 1 µM | IC50 (USP30; read-out: USP30 IC50 μM (avg)): 0.05 to 1 µM

COc1cc(NC(=O)[C@H](CC2CCNCC2)NC(=O)c2ccc(F)cc2)ccc1S(=O)(=O)NC1COC1 [Compound I-109, (S)-4-fluoro-N-(1-((3-methoxy-4-(N-(oxetan-3-yl)sulfamoyl)phenyl)amino)-1-oxo-3-(piperidin-4-yl)propan-2-yl)benzamide]
IC50 [1, 2]: 0.05 to 1 µM | IC50 (USP30; read-out: USP30 IC50 μM (avg)): < 0.05 µM

COc1cc(NC(=O)[C@H](CC2CCNCC2)NC(=O)c2ccc(F)cc2)ccc1S(=O)(=O)N[C@@H]1CCOC1 [Compound I-110]
IC50 [1, 2]: 0.05 to 1 µM | IC50 (USP30; read-out: USP30 IC50 μM (avg)): 0.05 to 1 µM

CC(C)(CF)NS(=O)(=O)c1ccc(NC(=O)[C@H](CC2CCOCC2)NC(=O)c2ccc(F)cc2)cc1 [Compound I-112]
IC50 [1, 3]: < 0.05 µM | IC50 (USP30; read-out: USP30 IC50 μM (avg)): < 0.05 µM

CC(C)(C)NS(=O)(=O)c1ccc(NC(=O)[C@H](CC2CCN(Cc3ccccc3)CC2)NC(=O)c2ccc(F)cc2)cc1 [Compound I-115]
IC50 [1, 3]: < 0.05 µM | IC50 (USP30; read-out: USP30 IC50 μM (avg)): < 0.05 µM

CC(C)N1CCC(C[C@H](NC(=O)c2ccc(F)cc2)C(=O)Nc2ccc(S(=O)(=O)NC(C)(C)C)cc2)CC1 [Compound I-117]
IC50 (USP30; read-out: USP30 IC50 μM (avg)): < 0.05 µM

CC(C)(C)NS(=O)(=O)c1ccc(NC(=O)C(CC2CCN(CCO)CC2)NC(=O)c2ccc(F)cc2)cc1 (centres unmarked) [Compound I-121]
IC50 [1, 3]: < 0.05 µM | IC50 (USP30; read-out: USP30 IC50 μM (avg)): < 0.05 µM

CC(C)(CF)NS(=O)(=O)c1ccc(NC(=O)[C@H](CC2CCNCC2)NC(=O)c2ccc(F)cc2)cc1 [Compound I-122]
IC50 [1, 2]: 0.05 to 1 µM | IC50 (USP30; read-out: USP30 IC50 μM (avg)): < 0.05 µM

N#CN1CC[C@@H](NC(=O)[C@H](Cc2ccccc2)NC(=O)c2ccc(F)cc2)C1 [Compound I-125]
IC50 [1, 2]: 0.05 to 1 µM | IC50 (USP30; read-out: USP30 IC50 μM (avg)): 0.05 to 1 µM

O=C(N[C@@H](CC1CCOCC1)C(=O)Nc1ccc(S(=O)(=O)NC2CCOCC2)cc1)c1ccc(F)cc1 [Compound I-128]
IC50 [1, 2]: 0.05 to 1 µM | IC50 (USP30; read-out: USP30 IC50 μM (avg)): < 0.05 µM

C[C@@H](CO)NS(=O)(=O)c1ccc(NC(=O)[C@H](Cc2ccccc2)NC(=O)c2ccc(F)cc2)cc1 [Compound I-129]
IC50 [1, 2]: 0.05 to 1 µM | IC50 (USP30; read-out: USP30 IC50 μM (avg)): < 0.05 µM

C[C@H](CO)NS(=O)(=O)c1ccc(NC(=O)[C@H](Cc2ccccc2)NC(=O)c2ccc(F)cc2)cc1 [Compound I-130]
IC50 [1, 3]: < 0.05 µM | IC50 (USP30; read-out: USP30 IC50 μM (avg)): < 0.05 µM

O=C(N[C@@H](Cc1ccccc1)C(=O)Nc1ccc(S(=O)(=O)NC2(CO)CC2)cc1)c1ccc(F)cc1 [Compound I-131]
IC50 [1, 3]: < 0.05 µM | IC50 (USP30; read-out: USP30 IC50 μM (avg)): < 0.05 µM

CC(CO)(CO)NS(=O)(=O)c1ccc(NC(=O)[C@H](Cc2ccccc2)NC(=O)c2ccc(F)cc2)cc1 [Compound I-132]
IC50 [1, 2]: 0.05 to 1 µM | IC50 (USP30; read-out: USP30 IC50 μM (avg)): < 0.05 µM

O=C(N[C@@H](CC1CCOCC1)C(=O)Nc1ccc(S(=O)(=O)NC2CCOCC2)nc1)c1ccc(F)cc1 [Compound I-133]
IC50 [1, 2]: 0.05 to 1 µM | IC50 (USP30; read-out: USP30 IC50 μM (avg)): < 0.05 µM

COc1cc(NC(=O)[C@H](Cc2ccccc2)NC(=O)c2ccc(F)cc2)ccc1S(=O)(=O)N[C@@H](C)CO [Compound I-136]
IC50 [1, 2]: 0.05 to 1 µM | IC50 (USP30; read-out: USP30 IC50 μM (avg)): < 0.05 µM

CO[C@H]1C[C@@H](C(=O)Nc2ccc(S(=O)(=O)NC(C)(C)C)cc2)N(C(=O)c2ccc(F)cc2)C1 [Compound I-290]
IC50 [1, 2]: 1 to 10 µM

CO[C@H]1C[C@@H](C(=O)Nc2ccc(S(=O)(=O)NC(C)(C)CO)cc2)N(C(=O)c2ccc(F)cc2)C1 [Compound I-291]
IC50 [1, 3]: > 10 µM

CC(C)(C)NS(=O)(=O)c1ccc(NC(=O)C2CC(C3CCCCC3)CN2C(=O)c2ccc(F)cc2)cc1 (centres unmarked) [Compound I-292]
IC50 [1, 2]: 0.05 to 1 µM
